{"source": "ChEMBL document CHEMBL3044827", "about": "“Synthesis and in vitro anti-Helicobacter pylori activity of 2-[(chlorobenzyl)thio]-5-(5-nitro-2-furyl)-1,3,4-thiadiazoles” (2008)", "format_in_all_cases": "functional", "settings_in_all_cases": "read-out: DIZ", "key": {"Helicobacter pylori [1]": {"test_system": "Helicobacter pylori", "experiment": "Antibacterial activity against Helicobacter pylori at 16 ug/disk after 3 to 5 days by paper disk diffusion method"}, "Helicobacter pylori [2]": {"test_system": "Helicobacter pylori", "experiment": "Antibacterial activity against Helicobacter pylori at 32 ug/disk after 3 to 5 days by paper disk diffusion method"}, "Helicobacter pylori [3]": {"test_system": "Helicobacter pylori", "experiment": "Antibacterial activity against Helicobacter pylori at 8 ug/disk after 3 to 5 days by paper disk diffusion method"}, "Helicobacter pylori [4]": {"test_system": "Helicobacter pylori", "experiment": "Antibacterial activity against Helicobacter pylori at 2 ug/disk after 3 to 5 days by paper disk diffusion method"}, "Helicobacter pylori [5]": {"test_system": "Helicobacter pylori", "experiment": "Antibacterial activity against Helicobacter pylori at 4 ug/disk after 3 to 5 days by paper disk diffusion method"}, "Helicobacter pylori [6]": {"test_system": "Helicobacter pylori", "experiment": "Antibacterial activity against Helicobacter pylori at 1 ug/disk after 3 to 5 days by paper disk diffusion method"}, "Helicobacter pylori [7]": {"test_system": "Helicobacter pylori", "experiment": "Antibacterial activity against Helicobacter pylori at 0.5 ug/disk after 3 to 5 days by paper disk diffusion method"}, "Helicobacter pylori [8]": {"test_system": "Helicobacter pylori", "experiment": "Antibacterial activity against metronidazole-resistant Helicobacter pylori at 32 ug/disk after 3 to 5 days by paper disk diffusion method"}, "Helicobacter pylori [9]": {"test_system": "Helicobacter pylori", "experiment": "Antibacterial activity against metronidazole-resistant Helicobacter pylori at 16 ug/disk after 3 to 5 days by paper disk diffusion method"}, "Helicobacter pylori [10]": {"test_system": "Helicobacter pylori", "experiment": "Antibacterial activity against metronidazole-resistant Helicobacter pylori at 8 ug/disk after 3 to 5 days by paper disk diffusion method"}, "Helicobacter pylori [11]": {"test_system": "Helicobacter pylori", "experiment": "Antibacterial activity against metronidazole-sensitive Helicobacter pylori at 32 ug/disk after 3 to 5 days by paper disk diffusion method"}, "Helicobacter pylori [12]": {"test_system": "Helicobacter pylori", "experiment": "Antibacterial activity against metronidazole-sensitive Helicobacter pylori at 16 ug/disk after 3 to 5 days by paper disk diffusion method"}, "Helicobacter pylori [13]": {"test_system": "Helicobacter pylori", "experiment": "Antibacterial activity against metronidazole-sensitive Helicobacter pylori at 8 ug/disk after 3 to 5 days by paper disk diffusion method"}}, "data": [{"smiles": "O=[N+]([O-])c1ccc(-c2nnc(SCc3cccc(Cl)c3)s2)o1", "values": [{"measurement": "zone of inhibition at 16 µg/disc", "setting": "Helicobacter pylori [1]", "result": 24.1, "unit": "mm"}, {"measurement": "zone of inhibition at 32 µg/disc", "setting": "Helicobacter pylori [2]", "result": 25.8, "unit": "mm"}, {"measurement": "zone of inhibition at 8 µg/disc", "setting": "Helicobacter pylori [3]", "result": 20.6, "unit": "mm"}, {"measurement": "zone of inhibition at 2 µg/disc", "setting": "Helicobacter pylori [4]", "result": 15.8, "unit": "mm"}, {"measurement": "zone of inhibition at 4 µg/disc", "setting": "Helicobacter pylori [5]", "result": 18.4, "unit": "mm"}, {"measurement": "zone of inhibition at 1 µg/disc", "setting": "Helicobacter pylori [6]", "result": 13.1, "unit": "mm"}, {"measurement": "zone of inhibition at 0.5 µg/disc", "setting": "Helicobacter pylori [7]", "result": 10.3, "unit": "mm"}, {"measurement": "zone of inhibition at 32 µg/disc", "setting": "Helicobacter pylori [8]", "result": 25, "unit": "mm"}, {"measurement": "zone of inhibition at 16 µg/disc", "setting": "Helicobacter pylori [9]", "result": 22, "unit": "mm"}, {"measurement": "zone of inhibition at 8 µg/disc", "setting": "Helicobacter pylori [10]", "result": 20, "unit": "mm"}, {"measurement": "zone of inhibition at 32 µg/disc", "setting": "Helicobacter pylori [11]", "result": 28, "unit": "mm"}, {"measurement": "zone of inhibition at 16 µg/disc", "setting": "Helicobacter pylori [12]", "result": 25, "unit": "mm"}, {"measurement": "zone of inhibition at 8 µg/disc", "setting": "Helicobacter pylori [13]", "result": 21, "unit": "mm"}]}, {"smiles": "O=[N+]([O-])c1ccc(-c2nnc(SCc3ccc(Cl)cc3)s2)o1", "values": [{"measurement": "zone of inhibition at 32 µg/disc", "setting": "Helicobacter pylori [8]", "result": 17, "unit": "mm"}, {"measurement": "zone of inhibition at 16 µg/disc", "setting": "Helicobacter pylori [9]", "result": 17, "unit": "mm"}, {"measurement": "zone of inhibition at 8 µg/disc", "setting": "Helicobacter pylori [10]", "result": 16, "unit": "mm"}, {"measurement": "zone of inhibition at 32 µg/disc", "setting": "Helicobacter pylori [11]", "result": 19, "unit": "mm"}, {"measurement": "zone of inhibition at 16 µg/disc", "setting": "Helicobacter pylori [12]", "result": 16, "unit": "mm"}, {"measurement": "zone of inhibition at 8 µg/disc", "setting": "Helicobacter pylori [13]", "result": 6, "unit": "mm"}]}, {"smiles": "O=[N+]([O-])c1ccc(-c2nnc(SCc3ccccc3)s2)o1", "values": [{"measurement": "zone of inhibition at 16 µg/disc", "setting": "Helicobacter pylori [1]", "result": 21, "unit": "mm"}, {"measurement": "zone of inhibition at 32 µg/disc", "setting": "Helicobacter pylori [2]", "result": 24.1, "unit": "mm"}, {"measurement": "zone of inhibition at 8 µg/disc", "setting": "Helicobacter pylori [3]", "result": 17.4, "unit": "mm"}, {"measurement": "zone of inhibition at 2 µg/disc", "setting": "Helicobacter pylori [4]", "result": 12.1, "unit": "mm"}, {"measurement": "zone of inhibition at 4 µg/disc", "setting": "Helicobacter pylori [5]", "result": 14.7, "unit": "mm"}, {"measurement": "zone of inhibition at 1 µg/disc", "setting": "Helicobacter pylori [6]", "result": 9.6, "unit": "mm"}, {"measurement": "zone of inhibition at 0.5 µg/disc", "setting": "Helicobacter pylori [7]", "result": 6.7, "unit": "mm"}, {"measurement": "zone of inhibition at 32 µg/disc", "setting": "Helicobacter pylori [8]", "result": 25, "unit": "mm"}, {"measurement": "zone of inhibition at 16 µg/disc", "setting": "Helicobacter pylori [9]", "result": 22, "unit": "mm"}, {"measurement": "zone of inhibition at 8 µg/disc", "setting": "Helicobacter pylori [10]", "result": 19, "unit": "mm"}, {"measurement": "zone of inhibition at 32 µg/disc", "setting": "Helicobacter pylori [11]", "result": 25, "unit": "mm"}, {"measurement": "zone of inhibition at 16 µg/disc", "setting": "Helicobacter pylori [12]", "result": 22, "unit": "mm"}, {"measurement": "zone of inhibition at 8 µg/disc", "setting": "Helicobacter pylori [13]", "result": 18, "unit": "mm"}]}, {"smiles": "O=[N+]([O-])c1ccc(-c2nnc(SCc3ccccc3Cl)s2)o1", "values": [{"measurement": "zone of inhibition at 16 µg/disc", "setting": "Helicobacter pylori [1]", "result": 18.9, "unit": "mm"}, {"measurement": "zone of inhibition at 32 µg/disc", "setting": "Helicobacter pylori [2]", "result": 21.4, "unit": "mm"}, {"measurement": "zone of inhibition at 8 µg/disc", "setting": "Helicobacter pylori [3]", "result": 17.1, "unit": "mm"}, {"measurement": "zone of inhibition at 2 µg/disc", "setting": "Helicobacter pylori [4]", "result": 9.4, "unit": "mm"}, {"measurement": "zone of inhibition at 4 µg/disc", "setting": "Helicobacter pylori [5]", "result": 11.3, "unit": "mm"}, {"measurement": "zone of inhibition at 1 µg/disc", "setting": "Helicobacter pylori [6]", "result": 8.3, "unit": "mm"}, {"measurement": "zone of inhibition at 0.5 µg/disc", "setting": "Helicobacter pylori [7]", "result": 6.8, "unit": "mm"}, {"measurement": "zone of inhibition at 32 µg/disc", "setting": "Helicobacter pylori [8]", "result": 22, "unit": "mm"}, {"measurement": "zone of inhibition at 16 µg/disc", "setting": "Helicobacter pylori [9]", "result": 20, "unit": "mm"}, {"measurement": "zone of inhibition at 8 µg/disc", "setting": "Helicobacter pylori [10]", "result": 18, "unit": "mm"}, {"measurement": "zone of inhibition at 32 µg/disc", "setting": "Helicobacter pylori [11]", "result": 21, "unit": "mm"}, {"measurement": "zone of inhibition at 16 µg/disc", "setting": "Helicobacter pylori [12]", "result": 21, "unit": "mm"}, {"measurement": "zone of inhibition at 8 µg/disc", "setting": "Helicobacter pylori [13]", "result": 19, "unit": "mm"}]}, {"smiles": "O=[N+]([O-])c1ccc(-c2nnc(SCc3c(Cl)cccc3Cl)s2)o1", "values": [{"measurement": "zone of inhibition at 16 µg/disc", "setting": "Helicobacter pylori [1]", "result": 21.9, "unit": "mm"}, {"measurement": "zone of inhibition at 32 µg/disc", "setting": "Helicobacter pylori [2]", "result": 23.7, "unit": "mm"}, {"measurement": "zone of inhibition at 8 µg/disc", "setting": "Helicobacter pylori [3]", "result": 19.4, "unit": "mm"}, {"measurement": "zone of inhibition at 2 µg/disc", "setting": "Helicobacter pylori [4]", "result": 13.1, "unit": "mm"}, {"measurement": "zone of inhibition at 4 µg/disc", "setting": "Helicobacter pylori [5]", "result": 15.2, "unit": "mm"}, {"measurement": "zone of inhibition at 1 µg/disc", "setting": "Helicobacter pylori [6]", "result": 10.9, "unit": "mm"}, {"measurement": "zone of inhibition at 0.5 µg/disc", "setting": "Helicobacter pylori [7]", "result": 8.7, "unit": "mm"}, {"measurement": "zone of inhibition at 32 µg/disc", "setting": "Helicobacter pylori [8]", "result": 24, "unit": "mm"}, {"measurement": "zone of inhibition at 16 µg/disc", "setting": "Helicobacter pylori [9]", "result": 21, "unit": "mm"}, {"measurement": "zone of inhibition at 8 µg/disc", "setting": "Helicobacter pylori [10]", "result": 20, "unit": "mm"}, {"measurement": "zone of inhibition at 32 µg/disc", "setting": "Helicobacter pylori [11]", "result": 26, "unit": "mm"}, {"measurement": "zone of inhibition at 16 µg/disc", "setting": "Helicobacter pylori [12]", "result": 23, "unit": "mm"}, {"measurement": "zone of inhibition at 8 µg/disc", "setting": "Helicobacter pylori [13]", "result": 21, "unit": "mm"}]}, {"smiles": "O=[N+]([O-])c1ccc(-c2nnc(SCc3ccc(Cl)cc3Cl)s2)o1", "values": [{"measurement": "zone of inhibition at 32 µg/disc", "setting": "Helicobacter pylori [8]", "result": 6, "unit": "mm"}, {"measurement": "zone of inhibition at 16 µg/disc", "setting": "Helicobacter pylori [9]", "result": 6, "unit": "mm"}, {"measurement": "zone of inhibition at 8 µg/disc", "setting": "Helicobacter pylori [10]", "result": 6, "unit": "mm"}, {"measurement": "zone of inhibition at 32 µg/disc", "setting": "Helicobacter pylori [11]", "result": 15, "unit": "mm"}, {"measurement": "zone of inhibition at 16 µg/disc", "setting": "Helicobacter pylori [12]", "result": 15, "unit": "mm"}, {"measurement": "zone of inhibition at 8 µg/disc", "setting": "Helicobacter pylori [13]", "result": 13, "unit": "mm"}]}, {"smiles": "Cc1ncc([N+](=O)[O-])n1CCO", "note": "[METRONIDAZOLE]", "values": [{"measurement": "zone of inhibition at 8 µg/disc", "setting": "Helicobacter pylori [3]", "result": 16.3, "unit": "mm"}]}, {"smiles": "CC1(C)S[C@@H]2[C@H](NC(=O)[C@H](N)c3ccc(O)cc3)C(=O)N2[C@H]1C(=O)O", "note": "[AMOXICILLIN]", "values": [{"measurement": "zone of inhibition at 1 µg/disc", "setting": "Helicobacter pylori [6]", "result": 24.5, "unit": "mm"}]}, {"smiles": "O=[N+]([O-])c1ccc(-c2nnc(SCc3cccc(Cl)c3Cl)s2)o1", "values": [{"measurement": "zone of inhibition at 32 µg/disc", "setting": "Helicobacter pylori [8]", "result": 17, "unit": "mm"}, {"measurement": "zone of inhibition at 16 µg/disc", "setting": "Helicobacter pylori [9]", "result": 6, "unit": "mm"}, {"measurement": "zone of inhibition at 8 µg/disc", "setting": "Helicobacter pylori [10]", "result": 6, "unit": "mm"}, {"measurement": "zone of inhibition at 32 µg/disc", "setting": "Helicobacter pylori [11]", "result": 16, "unit": "mm"}, {"measurement": "zone of inhibition at 16 µg/disc", "setting": "Helicobacter pylori [12]", "result": 16, "unit": "mm"}, {"measurement": "zone of inhibition at 8 µg/disc", "setting": "Helicobacter pylori [13]", "result": 15, "unit": "mm"}]}, {"smiles": "O=[N+]([O-])c1ccc(-c2nnc(SCc3ccc(Cl)c(Cl)c3)s2)o1", "values": [{"measurement": "zone of inhibition at 32 µg/disc", "setting": "Helicobacter pylori [8]", "result": 12, "unit": "mm"}, {"measurement": "zone of inhibition at 16 µg/disc", "setting": "Helicobacter pylori [9]", "result": 6, "unit": "mm"}, {"measurement": "zone of inhibition at 8 µg/disc", "setting": "Helicobacter pylori [10]", "result": 6, "unit": "mm"}, {"measurement": "zone of inhibition at 32 µg/disc", "setting": "Helicobacter pylori [11]", "result": 15, "unit": "mm"}, {"measurement": "zone of inhibition at 16 µg/disc", "setting": "Helicobacter pylori [12]", "result": 13, "unit": "mm"}, {"measurement": "zone of inhibition at 8 µg/disc", "setting": "Helicobacter pylori [13]", "result": 11, "unit": "mm"}]}]}
